Assay results published in PubChem BioAssay (NCI).
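Values below derive from 48-hour exposures of cells grown in 96-well plates, with endpoints linearly interpolated between the two concentrations bracketing the appropriate inhibition level. Abbreviation: GI50, concentration required for 50% inhibition of growth. The concentration for full growth arrest is given as TGI.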

How the values were obtained:
Test in all cases: NCI tumour cell line growth inhibition, 48 h
NCI-H522 lung = tested on: NCI-H522 lung
K-562 leukemia = tested on: K-562 leukemia
OVCAR-5 ovarian = tested on: OVCAR-5 ovarian
OVCAR-3 ovarian = tested on: OVCAR-3 ovarian
UO-31 renal = tested on: UO-31 renal
KM12 colon = tested on: KM12 colon
SR leukemia = tested on: SR leukemia
SNB-19 CNS = tested on: SNB-19 CNS
HCT-116 colon = tested on: HCT-116 colon
RPMI-8226 leukemia = tested on: RPMI-8226 leukemia

Compound	GI50 (NCI-H522 lung) [µM]	TGI (NCI-H522 lung) [µM]	GI50 (K-562 leukemia) [µM]	TGI (K-562 leukemia) [µM]	GI50 (OVCAR-5 ovarian) [µM]	TGI (OVCAR-5 ovarian) [µM]	GI50 (OVCAR-3 ovarian) [µM]	TGI (OVCAR-3 ovarian) [µM]	GI50 (UO-31 renal) [µM]	TGI (UO-31 renal) [µM]	GI50 (KM12 colon) [µM]	TGI (KM12 colon) [µM]	GI50 (SR leukemia) [µM]	TGI (SR leukemia) [µM]	GI50 (SNB-19 CNS) [µM]	TGI (SNB-19 CNS) [µM]	GI50 (HCT-116 colon) [µM]	TGI (HCT-116 colon) [µM]	GI50 (RPMI-8226 leukemia) [µM]	TGI (RPMI-8226 leukemia) [µM]
CCCCCCCCOC(=O)c1c(C)[nH]c(/C=C2\N=C(c3ccc[nH]3)C=C2OC)c1C	0.0316	4.02	0.0212	14.2	0.0943	3.45	0.0276	0.422	0.0377	0.108	0.0355	1.97	< 0.0169	1.05	0.551	> 46.3	< 0.0177	1.25	0.12	2.11
N/C(=N\NS(=O)(=O)c1ccccc1)Oc1ccc(Br)cc1Br	–	> 100	–	> 100	–	> 100	–	> 100	–	> 100	–	> 100	–	> 100	–	> 100	–	> 100	–	> 100
CCCCCN(CCCCC)CC(O)c1cc(Cl)ccc1OC (stereo not given)	1.98	15.2	3.81	20.3	10.4	23.8	10.8	23.6	3.37	15.5	7.35	21.3	4.78	30.5	14.6	50.1	2.49	12.6	4.81	22.7
CC(C)c1nc(N(C)S(C)(=O)=O)nc(-c2ccc(F)cc2)c1/C=C/[C@@H](O)C[C@@H](O)CC(=O)O	21.5	> 100	> 100	> 100	> 100	> 100	> 100	> 100	> 100	> 100	> 100	> 100	32.7	> 100	48.2	> 100	59.5	> 100	> 100	> 100
CN1CCN(CCOc2ccc(-c3cnc4c(-c5cccc(F)c5)cnn4c3)cc2)CC1	1.73	3.65	0.915	3.48	1.79	3.55	1.87	4.03	1.47	3.37	1.5	3.06	4.02	> 100	1.72	3.8	1.79	3.51	1.85	5.25
CN(C)CCNC(=O)c1ccc(-c2nc3ccc4[nH]ncc4c3c3c2C2CCC3C2)cc1 (stereo not given)	1.25	4.33	1.29	9.4	3.01	9.85	1.71	5.9	2.03	5.18	0.534	3.36	0.254	2.65	2.69	9.81	0.432	9.13	1.35	4.6
